# Where “and” joins values, the source holds several entries; their conditions need not be identical. Identical values can stand only once.
# Assays:
# [1] = biological target: T1, full-length p75^NTR in COS cells (Rattus norvegicus, UniProt P07174); test: Live cell homo-FRET anisotropy, wild-type p75NTR; format: cell-based; parameters: key to average anisotropy change, wt: fold change vs mean of 6 pre-treatment time points (baseline ≈ 100); settings: for average anisotropy change, wt: 10 μM
# T1 construct: COS cells expressing full length, GFP-tagged rat p75^NTR; expressed in transfected cells; host or cells: COS-7
# T1 sequence (P07174 30-425): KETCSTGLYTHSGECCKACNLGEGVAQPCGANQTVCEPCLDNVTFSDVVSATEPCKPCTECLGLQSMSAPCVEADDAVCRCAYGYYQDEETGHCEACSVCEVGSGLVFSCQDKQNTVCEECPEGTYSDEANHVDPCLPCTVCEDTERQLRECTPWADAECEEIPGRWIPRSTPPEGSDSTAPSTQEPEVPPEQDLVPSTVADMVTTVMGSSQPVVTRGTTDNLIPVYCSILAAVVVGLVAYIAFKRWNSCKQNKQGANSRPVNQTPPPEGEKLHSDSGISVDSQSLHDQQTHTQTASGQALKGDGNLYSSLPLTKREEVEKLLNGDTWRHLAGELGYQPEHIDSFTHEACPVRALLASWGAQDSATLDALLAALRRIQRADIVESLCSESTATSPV
# Source text: Previous real-time homo-FRET anisotropy studies by ours as well as other laboratories have shown that the intracellular death domains of p75^NTR are associated with each other (high FRET, low anisotropy state) under basal conditions (Vilar et al, [2009]; Sykes et al, [2012]), but neurotrophin binding induces transient separation of p75^NTR death domains (low FRET, high anisotropy state) manifested as oscillations in real-time anisotropy measurements (Lin et al, [2015]; Tanaka et al, [2016]; Goh et al, [2018]). COS cells expressing full length, GFP-tagged rat p75^NTR were treated with vehicle or Div17E5 and changes in anisotropy levels were recorded over time.
# Anisotropy imaging in COS-7 cells that were transfected with a rat p75^NTR-EGFP* fusion construct was done as previously described (Goh, Lin et al, [2018]). EGFP* carries a […] mutation rendering monomeric EGFP. Changes in anisotropy were expressed as fold change at each time point (every 30 s) in comparison to the mean of 6 time points obtained prior to addition of treatment. Images were acquired using Nikon Ti-E based live cell epi-fluorescence microscope and MetaMorph software and analyzed using MatLab from Mathworks.
# [2] = system: A875-shp75 melanoma xenograft; test: Melanoma lung invasion assay, A875-shp75, delayed treatment 3 weeks after cell injection; format: in vivo, SCID mice
# Procedure: Finally, we investigated whether delayed administration of Np75-4A22 was able to affect engraftment and growth of metastatic tumors in the lung. To this end, drug treatment (orally at 200 mg/kg) was initiated 3 weeks after intravenous injection of A875-NT or A875-shp75 cells in female SCID mice and continued for additionally 4 weekly cycles (5 days on/2 days off) as above (Fig. 8E). Metastatic spread to the lungs was monitored weekly by bioluminescent imaging of luciferase-expressing melanoma cells. […] We conclude that Np75-4A22 can be efficacious at reducing the spread and seeding of melanoma cells in the lung when administered either before or after cell implantation.
# Eight-week-old female SCID mice (Charles River Laboratories, Shrewsbury, MA, USA) were housed in groups of three to five and maintained on a 12-h light/dark schedule with a temperature of 22 °C ± 1 °C and a relative humidity of 50% ± 5%. Food and water were available ad libitum. This research study was reviewed and approved by the University of Calgary Animal Care Committee (AC22-0054) and McGill University (AUP-JGH-8269) and adheres to established ethical principles and guidelines. A875-GFPLuc (A875-NT) or A875-GFPLuc shp75 (A875-shp75) cells harvested using Puck’s EDTA were resuspended in PBS and injected intravenously into SCID mice (5 × 10^5 cells/200 μl per mouse). Np75-4A22 was dissolved in 0.5% sodium carboxymethyl cellulose (NaCMC) in reverse osmosis H2O and administered by oral gavage at 200 mg/kg/day starting one day prior to intravenous (tail vein) injection of tumor cells and continued for 3 1-week cycles (cycle: 5 days on drug, 2 days off drug). Tumor spread to the lung was monitored weekly by luciferase activity using the Xenogen IVIS-200 Optical in vivo luciferase imaging system as described previously (Lun et al, [2016]) and by immunohistochemistry (IHC) at designated time points. IHC was performed after formalin fixation, paraffin embedding and sectioning of the lungs, using a human-specific mouse polyclonal nucleolin antibody (1:500 dilution) and detected using Dako liquid DAB+ Substrate Chromogen System (Dako: k3468, California, USA) followed by a hematoxylin counterstain (Sigma, Oakville, ON, Canada). Sections were mounted and imaged on an Olympus phase contrast microscope (Olympus Life Science, Tokyo, Japan). For immunofluorescence, sections were stained with anti-human nucleolin and anti-human p75NTR antibodies (1:1000 dilution), subsequently detected with 1:200 dilutions of Alexa Fluor™ 488 Goat anti-Mouse IgG (H + L) Highly Cross-Adsorbed Secondary Antibody and Alexa Fluor™ 568 Goat anti-Rabbit IgG (H + L) Cross-Adsorbed Secondary Antibody. Sections were further stained with DAPI to detect all nuclei. Between each treatment, TBS Automation Wash Buffer (Biocare Medical TWB945M) was employed. Images were taken with LSM800 confocal microscope and ZEN system.
structure (smiles),measurement,setting,value
Oc1ccc(-c2cncc(Nc3ccc(Br)c(Cl)c3)n2)cc1 [Div17E5],real-time homo-FRET anisotropy,[1]; 10 µM,induced oscillations in real-time anisotropy
same,"average anisotropy change, wt",[1]; 0 min after compound addition,106
same,"average anisotropy change, wt",[1]; 0.5 min after compound addition,88
same,"average anisotropy change, wt",[1]; 1 min after compound addition,110
same,"average anisotropy change, wt",[1]; 1.5 min after compound addition,101
same,"average anisotropy change, wt",[1]; 2 min after compound addition,115
same,"average anisotropy change, wt",[1]; 2.5 min after compound addition,82
same,"average anisotropy change, wt",[1]; 3 min after compound addition,112
same,"average anisotropy change, wt",[1]; 3.5 min after compound addition,105
same,"average anisotropy change, wt",[1]; 4 min after compound addition,80
same,"average anisotropy change, wt",[1]; 4.5 min after compound addition,111
same,"average anisotropy change, wt",[1]; 5 min after compound addition,83
same,"average anisotropy change, wt",[1]; 5.5 min after compound addition,99
same,"average anisotropy change, wt",[1]; 6 min after compound addition,121
same,"average anisotropy change, wt",[1]; 6.5 min after compound addition,122
same,"average anisotropy change, wt",[1]; 7 min after compound addition,100
same,"average anisotropy change, wt",[1]; 7.5 min after compound addition,100
same,"average anisotropy change, wt",[1]; 8 min after compound addition,74
same,"average anisotropy change, wt",[1]; 8.5 min after compound addition,96
same,"average anisotropy change, wt",[1]; 9 min after compound addition,96
same,"average anisotropy change, wt",[1]; 9.5 min after compound addition,103
same,"average anisotropy change, wt",[1]; 10 min after compound addition,99
same,"average anisotropy change, wt",[1]; 10.5 min after compound addition,110
same,"average anisotropy change, wt",[1]; 11 min after compound addition,95
same,"average anisotropy change, wt",[1]; 11.5 min after compound addition,89
same,"average anisotropy change, wt",[1]; 12 min after compound addition,110
same,"average anisotropy change, wt",[1]; 12.5 min after compound addition,95
same,"average anisotropy change, wt",[1]; 13 min after compound addition,108
same,"average anisotropy change, wt",[1]; 13.5 min after compound addition,110
same,"average anisotropy change, wt",[1]; 14 min after compound addition,100
same,"average anisotropy change, wt",[1]; 14.5 min after compound addition,105
same,"average anisotropy change, wt",[1]; 15 min after compound addition,94
same,"average anisotropy change, wt",[1]; -0.5 min after compound addition,104
same,"average anisotropy change, wt",[1]; -1 min after compound addition,103
same,"average anisotropy change, wt",[1]; -1.5 min after compound addition,97
same,"average anisotropy change, wt",[1]; -2 min after compound addition,101
same,"average anisotropy change, wt",[1]; -2.5 min after compound addition,97
same,"average anisotropy change, wt",[1]; -3 min after compound addition,98
Cc1cccc(-c2cncc(Nc3ccc(Br)c(Cl)c3Cl)n2)c1C [Np75-4A22],"Average Photons/second/week, wk2","[2]; group average, wk2",9.88E+04 Photons/second
same,"Average Photons/second/week, wk3","[2]; group average, wk3",1.46E+05 Photons/second
same,"Average Photons/second/week, wk4","[2]; group average, wk4",1.10E+05 Photons/second
same,"Average Photons/second/week, wk5","[2]; group average, wk5",2.77E+05 Photons/second
same,"Average Photons/second/week, wk6","[2]; group average, wk6",4.60E+05 Photons/second
same,"Average Photons/second/week, wk7","[2]; group average, wk7",1.10E+06 Photons/second
same,"Photons/second/ mouse/week, wk2","[2]; individual mouse, wk2",1.05E+05 Photons/second and 6.22E+04 Photons/second and 8.27E+04 Photons/second and 9.38E+04 Photons/second and 1.02E+05 Photons/second and 8.99E+04 Photons/second and 1.49E+05 Photons/second and 1.09E+05 Photons/second and 9.56E+04 Photons/second
same,"Photons/second/ mouse/week, wk3","[2]; individual mouse, wk3",1.10E+05 Photons/second and 1.18E+05 Photons/second and 1.42E+05 Photons/second and 1.47E+05 Photons/second and 1.39E+05 Photons/second and 1.86E+05 Photons/second and 1.67E+05 Photons/second and 1.65E+05 Photons/second and 1.36E+05 Photons/second
same,"Photons/second/ mouse/week, wk4","[2]; individual mouse, wk4",1.43E+05 Photons/second and 9.53E+04 Photons/second and 1.42E+05 Photons/second and 1.00E+05 Photons/second and 1.24E+05 Photons/second and 1.66E+05 Photons/second and 4.36E+04 Photons/second and 7.52E+04 Photons/second and 1.02E+05 Photons/second
same,"Photons/second/ mouse/week, wk5","[2]; individual mouse, wk5",1.26E+05 Photons/second and 1.70E+05 Photons/second and 1.58E+05 Photons/second and 1.31E+05 Photons/second and 1.75E+05 Photons/second and 1.89E+05 Photons/second and 1.28E+05 Photons/second and 4.29E+05 Photons/second and 9.90E+05 Photons/second
same,"Photons/second/ mouse/week, wk6","[2]; individual mouse, wk6",2.09E+05 Photons/second and 1.96E+05 Photons/second and 2.02E+05 Photons/second and 2.61E+05 Photons/second and 6.18E+04 Photons/second and 1.19E+05 Photons/second and 3.83E+05 Photons/second and 2.25E+06 Photons/second
same,"Photons/second/ mouse/week, wk7","[2]; individual mouse, wk7",1.96E+05 Photons/second and 1.65E+05 Photons/second and 3.28E+05 Photons/second and 1.98E+06 Photons/second and 3.78E+06 Photons/second

# From paper PMC12514245, “Impaired migration and lung invasion of human melanoma by a novel small molecule targeting the transmembrane domain of death receptor p75^NTR” (EMBO Molecular Medicine, 2025)
